# Source: US10328011B2, “Use of proline containing dipeptides” (DSM IP ASSETS B.V., priority 2015, dated 2019)
# Tests used:
# Format in all cases: cell-based
# LOXL2 = assay: Gene-expression analysis in normal human dermal fibroblasts: LOXL2; details: peptide 0.01%, 24 hrs
# Method: LOXL2: This gene encodes a member of the lysyl oxidase gene family that catalyses the first step in the formation of crosslinks in collagens.
# (§1) Normal human dermal fibroblasts at passage 7 from a donor were cultured in DMEM with L-glutamine 2 mM, Penicillin 50 U/ml-Streptomycin 50 ug/ml and 10% FCS in a 5% CO2 atmosphere at 37° C. After equilibration of cell in 1% FCS for 24 hrs the respective peptides H-(beta-Ala)-Pro-Dab-NH-benzyl [CAS 823202-99-9], respectively N-palmitoyl-Gly-His-Lys [147732-56-7]/N-palmitoyl-Gly-Gln-Pro-Arg [221227-C5-0] (2:1) diluted in growth medium to a concentration of 0.01% were added and the cells were incubated for an additional 24 hrs. At the end of incubation cells were washed in PBS and immediately frozen at −80° C. Total RNA was extracted using NucleoSpin RNA Plus kit (Macherey-Nagel) according to supplier's instructions. cDNA was synthesized by reverse transcription of total RNA using Transcriptor Reverse Transcriptase (Roche). PCR was performed on a LightCycler device (Roche Molecular Systems Inc.) according to manufacturer's instructions. Raw data were analyzed using Microsoft Excel.
# PCOLCE = assay: Gene-expression analysis in normal human dermal fibroblasts: PCOLCE; details: peptide 0.01%, 24 hrs
# Method: PCOLCE: This gene encodes a glycoprotein which binds and drives the enzymatic cleavage of type I procollagen upon secretion from the cell, to yield the mature triple helical, highly structured fibrils.
# as §1
# ADAMTS2 = assay: Gene-expression analysis in normal human dermal fibroblasts: ADAMTS2; details: peptide 0.01%, 24 hrs
# Method: ADAMTS2 is responsible for processing several types of procollagen proteins. Specifically, this enzyme clips a short chain of amino acids off one end of the procollagen. This clipping step is necessary for collagen molecules to function normally and assemble into fibrils outside cells.
# as §1
# PLOD3 = assay: Gene-expression analysis in normal human dermal fibroblasts: PLOD3; details: 24 hrs
# Method: PLOD3: The enzyme catalyzes the hydroxylation of lysyl residues in collagen-like peptides. The resultant hydroxylysyl groups are attachment sites for carbohydrates in collagen and thus are critical for the stability of intermolecular crosslinks.
# as §1
substance,measurement,setting,value
H-(beta-Ala)-Pro-Dab-NH-benzyl [H-(β-Ala)-Pro-Dab-NH-benzyl],LOXL2 gene expression,LOXL2,237%
same,PCOLCE gene expression,PCOLCE,137%
same,ADAMTS2 gene expression,ADAMTS2,151%
same,PLOD3 gene expression,"PLOD3; normal human dermal fibroblasts, peptide 0.01%",299%
same,upregulation of genes involved in collagen fiber maturation (in words),"PLOD3; summary over PLOD3, LOXL2, PCOLCE, ADAMTS2, fibroblasts, 0.01%",significantly upregulates
